The values below come from paper PMC6764862 (Xenobiotica; the fate of foreign compounds in biological …, 2019).

Data set [1] addresses T1, human AhR (hAhR) (Homo sapiens, UniProt P35869).
T1 sequence (P35869 11-848): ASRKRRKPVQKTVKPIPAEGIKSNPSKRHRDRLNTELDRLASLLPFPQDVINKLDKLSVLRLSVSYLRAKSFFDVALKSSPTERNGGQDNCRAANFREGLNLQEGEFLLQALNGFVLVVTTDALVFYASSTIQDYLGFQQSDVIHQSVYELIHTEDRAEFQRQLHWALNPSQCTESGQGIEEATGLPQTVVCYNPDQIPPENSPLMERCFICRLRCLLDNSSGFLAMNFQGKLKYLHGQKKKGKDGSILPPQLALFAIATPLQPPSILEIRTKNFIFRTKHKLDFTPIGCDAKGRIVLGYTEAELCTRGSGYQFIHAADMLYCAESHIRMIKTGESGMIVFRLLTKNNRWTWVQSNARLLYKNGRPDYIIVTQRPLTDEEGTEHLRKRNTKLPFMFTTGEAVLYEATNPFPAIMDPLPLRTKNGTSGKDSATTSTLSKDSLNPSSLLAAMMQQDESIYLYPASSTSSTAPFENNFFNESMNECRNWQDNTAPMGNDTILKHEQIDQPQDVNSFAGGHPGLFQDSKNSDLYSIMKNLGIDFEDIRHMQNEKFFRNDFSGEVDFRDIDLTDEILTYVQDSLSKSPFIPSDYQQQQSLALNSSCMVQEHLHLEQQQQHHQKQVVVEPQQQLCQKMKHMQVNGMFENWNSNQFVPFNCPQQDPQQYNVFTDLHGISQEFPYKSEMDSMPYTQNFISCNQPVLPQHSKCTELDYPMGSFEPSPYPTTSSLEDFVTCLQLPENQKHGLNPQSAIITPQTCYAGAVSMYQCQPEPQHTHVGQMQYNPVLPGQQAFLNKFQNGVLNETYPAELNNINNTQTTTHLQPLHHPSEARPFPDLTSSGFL
The data set can be described thus: AhR-dependent pXRE-SV40-Luc luciferase reporter in HepG2 cells. Type of data set: cell-based. The note with it: for Relative effect potency (REP) HepG2: EC50-based, relative to TCDD, human system; for maximum response, luciferase activity: concentration-response.

The target of data set [2] is T2, mouse AhR (mAhR) (Mus musculus, UniProt P30561).
T2 sequence (P30561 10-848): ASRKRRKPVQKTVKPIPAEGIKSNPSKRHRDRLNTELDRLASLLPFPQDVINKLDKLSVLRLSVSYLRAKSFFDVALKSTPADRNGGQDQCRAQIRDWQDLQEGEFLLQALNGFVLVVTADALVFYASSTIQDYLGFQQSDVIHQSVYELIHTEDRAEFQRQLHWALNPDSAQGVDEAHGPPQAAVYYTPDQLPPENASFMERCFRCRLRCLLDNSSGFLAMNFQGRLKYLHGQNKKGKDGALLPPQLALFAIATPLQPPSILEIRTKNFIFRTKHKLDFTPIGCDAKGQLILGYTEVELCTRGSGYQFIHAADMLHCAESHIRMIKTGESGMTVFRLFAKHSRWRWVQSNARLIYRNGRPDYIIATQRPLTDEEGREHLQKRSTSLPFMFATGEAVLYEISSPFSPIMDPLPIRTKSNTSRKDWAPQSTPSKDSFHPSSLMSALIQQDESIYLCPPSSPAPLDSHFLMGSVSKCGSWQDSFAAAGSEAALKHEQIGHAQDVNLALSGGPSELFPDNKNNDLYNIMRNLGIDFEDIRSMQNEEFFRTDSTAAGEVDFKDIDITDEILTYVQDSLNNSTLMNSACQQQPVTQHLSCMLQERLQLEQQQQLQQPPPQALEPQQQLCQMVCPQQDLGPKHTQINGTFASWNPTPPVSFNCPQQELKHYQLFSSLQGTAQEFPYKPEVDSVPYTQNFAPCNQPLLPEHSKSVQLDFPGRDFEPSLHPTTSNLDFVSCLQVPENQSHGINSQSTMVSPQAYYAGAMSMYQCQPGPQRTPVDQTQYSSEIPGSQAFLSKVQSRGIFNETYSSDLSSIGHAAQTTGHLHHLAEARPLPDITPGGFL
Particulars: for Relative effect potency (REP) Hepa1c1c7: EC50-based, relative to TCDD, murine system; for maximum response, luciferase activity: concentration-response.

The test system of data set [3] is mouse AhR (mAhR). Particulars: for REP ratio Hepa1c1c7/HepG2: mouse REP over human REP.
Data set [4] relates to CYP1A1 mRNA (AhR target gene). The data set can be described thus: CYP1A1 mRNA induction in primary human hepatocytes. Particulars: human. The data set is classed as cell-based.
The subject of data set [5] is Cyp1a1 mRNA (AhR target gene). The data set can be described thus: Cyp1a1 mRNA induction in primary mouse hepatocytes. Type of data set: cell-based. The note with it: male, C57BL/6, mouse.
Data set [6] has as its target T2, mouse AhR (mAhR). The data set can be described thus: in vitro. The note with it: hepa1c1c7 cells.
For data set [7], the system named is CYP1A1 (AhR target gene). The data set can be described thus: CYP1A1 mRNA induction in primary human hepatocytes. The data set is classed as cell-based. Particulars: primary human hepatocytes.
Data set [8] relates to Cyp1a1 (AhR target gene). The data set can be described thus: Cyp1a1 mRNA induction in primary mouse hepatocytes. Type of data set: cell-based. The note with it: primary mouse hepatocytes.
The subject of data set [9] is EGFR. Particulars: up to; highest potency of all congeners tested; ref Hardesty et al., 2018; cited from earlier work.
The mark [10] stands for this setting: read-out: EC50 for AhR luciferase reporter activity, HepG2 cells, 24 h treatment.

Like-named read-outs stand apart in the source and are kept apart here.

A word on the EC50: it is the concentration needed to bring the measured effect to its halfway point. As for `Clc1ccc(-c2cc(Cl)c(Cl)c(Cl)c2)cc1` [PCB 81], in data set [1], the “Relative effect potency (REP) HepG2” value turned out to be 0.06. Besides, the “maximum response, luciferase activity” value came out at 34.6 fold in data set [1] (HepG2 cells) and 2.3 fold in data set [2] (Hepa1c1c7 cells). The “WHO 2005 TEF fold lower than the human REP” value in data set [1] (TEF vs HepG2 REP of this study) turned out to be 200 fold. Further, in [1] (setting [10]), the EC50 was found to be 6.8 ± 2.7 nM. Besides, the “Relative effect potency (REP) Hepa1c1c7” value in [2] is recorded as 0.0009. In addition, the “fold higher EC50 in Hepa1c1c7 cells compared to HepG2 cells” value in data set [3] (luciferase reporter) is listed as “approximately 5 fold”. Moreover, the “REP ratio Hepa1c1c7/HepG2” value in data set [3] was found to be 0.015.

`Clc1ccc(-c2cc(Cl)c(Cl)c(Cl)c2Cl)cc1` [PCB 114]: the “Relative effect potency (REP) HepG2” value in [1] is given as no more than 0.00007. In addition, the EC50 in [1] (setting [10]) is no less than 5000 nM. For the same molecule, the “Relative effect potency (REP) Hepa1c1c7” value in data set [2] is on record as 0.00004. The “REP ratio Hepa1c1c7/HepG2” value in data set [3] is no less than 0.5.

What is called maximal fold induction is the signal under treatment as a multiple of the control signal. Higher therefore signals a strong induction. Consider `Clc1cc2c(cc1Cl)Oc1cc(Cl)c(Cl)cc1O2` [TCDD, 2,3,7,8-tetrachlorodibenzo-p-dioxin, reference compound], for which the response in data set [1] was half-maximal at 0.4 ± 0.1 nM (EC50). For the same molecule, the “Relative effect potency (REP) HepG2” value in [1] stood at 1. In addition, the “maximum response, luciferase activity” value in [1] (HepG2 cells) was found to be 83 fold. The EC50 at 24 h in [4] turned out to be 0.45 ± 0.34 nM; in data set [5], 0.04 ± 0.02 nM. In addition, in data set [3], the “REP ratio Hepa1c1c7/HepG2” value was 1. In data set [6], this molecule yielded a maximal fold induction at 24 h of 2.2.

On to `Clc1ccc(-c2ccc(Cl)c(Cl)c2)cc1Cl` [PCB 77], for which the “Relative effect potency (REP) HepG2” value in data set [1] is recorded as no more than 0.00009. Further, in data set [1] (setting [10]), the EC50 was no less than 4000 nM. The “Relative effect potency (REP) Hepa1c1c7” value in [2] was 0.0003. Moreover, in data set [3], the “REP ratio Hepa1c1c7/HepG2” value is given as no less than 3.3.

`Clc1ccc(-c2cc(Cl)c(Cl)c(Cl)c2)cc1Cl` [PCB 126]: in data set [1], the “Relative effect potency (REP) HepG2” value was found to be 0.002. In addition, the luciferase activity increase turned out to be 42 fold in [1] (HepG2 cells, 10 μM, 24 h, positive controls) and 3.7 fold in [2] (Hepa1c1c7 cells, 10 μM, 24 h, positive controls). Besides, the “maximum response, luciferase activity” value in data set [1] (HepG2 cells) came out at 31.6 fold; in data set [2] (Hepa1c1c7 cells), 5.9 fold. Besides, the “WHO 2005 TEF fold higher than the human REP” value in [1] (TEF vs HepG2 REP of this study) worked out at 50 fold. Besides, the concentration for a half-maximal effect (EC50) was 250 ± 150 nM in data set [1] (setting [10]) and 195 ± 35 nM in [7] (read-out: EC50 for induction of CYP1A1 mRNA, 24 h). In [7], the “maximal induction of CYP1A1 mRNA” value was found to be 45.1 fold. The “maximal induction of Cyp1a1 mRNA” value in data set [8] worked out at 53.3 fold. Besides, in data set [2], the “Relative effect potency (REP) Hepa1c1c7” value turned out to be 0.006. For the same molecule, the “fold more potent (lower EC50) in Hepa1c1c7 than in HepG2, luciferase reporter” value in data set [3] (mAhR vs hAhR, cell lines) was “approximately 53 fold”. For the same molecule, the “REP ratio Hepa1c1c7/HepG2” value in data set [3] was determined as 3. Besides, the “IC50 for EGFR inhibition” value in data set [9] was −16.07 ± 0.31 log M.

Turning to `Clc1cc(-c2cc(Cl)c(Cl)c(Cl)c2)cc(Cl)c1Cl` [PCB 169], in data set [1], the “Relative effect potency (REP) HepG2” value is on record as no more than 0.00005. In [1] (TEF vs HepG2 REP of this study), the “WHO 2005 TEF fold higher than the human REP” value is reported as greater than 300 fold. Moreover, the EC50 in data set [1] (setting [10]) is no less than 7000 nM. For the same molecule, the “Relative effect potency (REP) Hepa1c1c7” value in data set [2] turned out to be 0.001. In addition, the “REP ratio Hepa1c1c7/HepG2” value in [3] is reported as no less than 20.
